{
  "source": "patent US20210008145A1",
  "about": "“EDICINE COMPOSITION FOR TREATMENT OF HUMAN PAPILLOMAVIRUS INFECTION AND PREPARATION METHOD THEREOF” (Jiangsu Zhengyang Pharmaceutical Co., Ltd., priority 2018, published 2021)",
  "tested_on": "HeLa cells",
  "experiment": "MTT assay, inhibition of HeLa cell proliferation",
  "type": "cell-based",
  "details": "Homo sapiens, crude drug 25 g/L (cidofovir 10 μmol/mL), read-out: inhibition percentage on HeLa cell proliferation",
  "description": "The percentage inhibition on HeLa cell proliferation for each compound prepared in Examples 1-7 was determined by MTT assay (MTT Cell Proliferation and Cytotoxicity Assay Kit). HeLa cells was cultured in a 96-well plate for 6.0×10^3 cells per well, and allowed to adhere to the surface of the 96-well plate. Serum-free medium was added to each well of control group. Cidofovir was diluted in purified water such that the final concentration of cidofovir in the assay was 10 μmol/mL, and the resulting solution was added to each well of positive control group. Each compound of Examples 1-7 was diluted in water to a crude drug concentration of 25 g/L, and the resulting solution was added to the 96-well plate for a final volume of 200 μL per well. 200 μL of complete medium was only added to each well of blank control group. Each experimental group was done in 6 well replicates. After incubation of 24, 48, and 72 hours, 20 μL of 5 g/L MTT was added to each well and the plates were further incubated at 37° C. for 4 hours. Following discarding the supernatant, 200 μL of dimethyl sulfoxide (DMSO) was added to each well and the plates were shaken sufficiently as so to dissolve the crystals. Absorbance (A) of the wells at 490 nm was measured. These measurements then are used to calculate the percentage inhibition of cell growth: percentage inhibition=1−[…]×100%, where TA refers to the average absorbance of treatment group, and CA refers to the average absorbance of control group.",
  "note": "Like-named read-outs stand apart in the source and are kept apart here.",
  "data": [
    {"smiles": "Nc1ccn(C[C@@H](CO)OCP(=O)(O)O)c(=O)n1", "note": "[Cidofovir]", "values": [
      {"measurement": "inhibition at 25000 µg/mL", "setting": "24 hours", "value": "32.2 ± 2.08", "unit": "%"},
      {"measurement": "inhibition at 25000 µg/mL", "setting": "48 hours", "value": "48.6 ± 3.5", "unit": "%"},
      {"measurement": "inhibition at 25000 µg/mL", "setting": "72 hours", "value": "58.1 ± 3.21", "unit": "%"}
    ]}
  ]
}
